One series concerns the target T1, RARbeta (Homo sapiens, UniProt P10826).
T1 sequence (P10826 183-417 limits assumed): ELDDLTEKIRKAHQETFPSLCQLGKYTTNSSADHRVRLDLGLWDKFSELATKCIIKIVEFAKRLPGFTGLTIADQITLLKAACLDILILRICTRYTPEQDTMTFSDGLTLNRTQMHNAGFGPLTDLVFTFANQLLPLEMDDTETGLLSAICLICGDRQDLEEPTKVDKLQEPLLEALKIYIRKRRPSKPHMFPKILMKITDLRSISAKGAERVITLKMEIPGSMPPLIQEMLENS
As to the kind of experiment: Transactivation test, HeLa reporter cells (RARbeta). The series is classed as cell-based. The protocol: (§1) The activation of the receptors by an agonist (activator) in HeLa cells results in the expression of a reporter gene, luciferase, which, in the presence of a substrate, generates light. It is therefore possible to measure the activation of the receptors by quantifying the luminescence produced after incubation of the cells in the presence of a reference antagonist. The activator products displace the antagonist from its site, thus allowing activation of the receptor. The measurement of the activity is carried out by quantifying the increase in the light produced. This measurement makes it possible to determine the activating activity of the compound for use in the invention.
(§2) In this study, a constant which is the affinity of the molecule for the receptor is determined. Since this value can fluctuate depending on the basal activity and the expression of the receptor, it is designated apparent Kd (KdApp). […]
(§3) These cross curves make it possible to determine the AC50 values (concentration at which 50% activation is observed) for the reference ligand at various concentrations of product to be tested. These AC50 values are used to calculate the Schild regression by plotting a straight line corresponding to the Schild equation (“quantitation in receptor pharmacology”, Terry P. Kenakin, Receptors and Channels, 2001, 7, 371-385).
(§4) In the case of an agonist, the AC50 value (concentration that gives 50% of the activity) is calculated by plotting the curve of the product at the concentration of the reference ligand that gives 80% activation. The percentage activation which corresponds to the maximum level of activity obtained is also measured. […]
(§5) The culture medium is removed by turning the plates upside down and 100 μl of a 1:1 PBS (phosphate buffer solution)/luciferin mixture are added to each well. After 5 minutes, the plates are read with a luminescence reader.

The target in the next series is T2, RARalpha (Homo sapiens, UniProt P10276).
T2 sequence (P10276 183-417 limits assumed): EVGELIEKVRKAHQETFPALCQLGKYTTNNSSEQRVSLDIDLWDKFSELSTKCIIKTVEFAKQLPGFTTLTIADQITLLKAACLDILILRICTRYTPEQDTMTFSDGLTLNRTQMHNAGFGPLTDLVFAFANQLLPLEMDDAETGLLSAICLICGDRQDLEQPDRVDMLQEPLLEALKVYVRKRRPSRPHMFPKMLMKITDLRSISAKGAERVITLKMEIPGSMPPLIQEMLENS
In words: Transactivation test, HeLa reporter cells (RARalpha). The series is classed as cell-based. As for the experimental part: as §1, §2, §3, §4, §5

A further series deals with T3, RARgamma (Homo sapiens, UniProt P13631).
T3 sequence (P13631 185-419 limits assumed): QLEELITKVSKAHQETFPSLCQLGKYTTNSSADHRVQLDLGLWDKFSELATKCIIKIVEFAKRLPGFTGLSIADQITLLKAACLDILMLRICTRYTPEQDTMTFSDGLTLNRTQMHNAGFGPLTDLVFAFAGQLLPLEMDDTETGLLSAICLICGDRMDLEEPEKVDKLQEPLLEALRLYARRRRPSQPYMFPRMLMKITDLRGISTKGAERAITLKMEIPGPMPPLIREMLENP
As to the kind of experiment: Transactivation test, HeLa reporter cells (RARgamma). The conditions noted are these: for specificity for RARgamma in comparison with RARalpha and RARbeta: transactivation test, in words. The format is cell-based. As for the experimental part: as §1
In this study, a constant which is the affinity of the molecule for the receptor is determined. Since this value can fluctuate depending on the basal activity and the expression of the receptor, it is designated apparent Kd (KdApp).
To determine this constant, “cross curves” for the product to be tested (2-hydroxy-4-[2-hydroxyimino-2-(5,5,8,8-tetramethyl-5,6,7,8-tetrahydronaphthalen-2-yl)ethoxy]benzoic acid), against a reference antagonist, otherwise called reference ligand, 4-(5,5-dimethyl-8-p-tolyl-5,6-dihydronaphthalen-2-ylethynyl)benzoic acid, are produced. The product to be tested is used at 10 concentrations and the reference antagonist at 7 concentrations. In each well (of a 96-well plate), the cells are in contact with one concentration of the product to be tested and one concentration of the reference antagonist.
Measurements are also carried out for the total agonist control, otherwise called 100% control (4-[2-(5,5,8,8-tetramethyl-5,6,7,8-tetrahydronaphthalen-2-yl)propenyl]benzoic acid), and the inverse agonist control, otherwise called 0% control, 4-{(E)-3-[4-(4-tert-butylphenyl)-5,5,8,8-tetramethyl-5,6,7,8-tetrahydronaphthalen-2-yl]-3-oxopropenyl}benzoic acid.
as §3
In the case of an agonist, the AC50 value (concentration that gives 50% of the activity) is calculated by plotting the curve of the product at the concentration of the reference ligand that gives 80% activation. The percentage activation which corresponds to the maximum level of activity obtained is also measured.
The HeLa cell lines used are stable transfectants containing the plasmids ERE-βGlob-Luc-SV-Neo (reporter gene) and RAR (α, β, γ) ER-DBD-puro. These cells are seeded into 96-well plates at a rate of 10,000 cells per well in 100 μl of DMEM medium without phenol red, supplemented with 10% of delipidized calf serum. The plates are then incubated at 37° C., 7% CO2 for 4 hours. […]
as §5

Setting [1] is: concentration that gives 50% of the activity, HeLa luciferase reporter.

As for `CC1(C)CCC(C)(C)c2cc(C(COc3ccc(C(=O)O)c(O)c3)=NO)ccc21` [Acid compound of the invention, 2-hydroxy-4-[2-hydroxyimino-2-(5,5,8,8-tetramethyl-5,6,7,8-tetrahydronaphthalen-2-yl)ethoxy]benzoic acid], the Kd on RARbeta (apparent Kd, Schild regression against reference antagonist, HeLa luciferase reporter, read-out: RARbeta Kdapp) is 1030 nM; at RARalpha (apparent Kd, Schild regression against reference antagonist, HeLa luciferase reporter, read-out: RARalpha Kdapp), 4060 nM; at RARgamma (apparent Kd, Schild regression against reference antagonist, HeLa luciferase reporter, read-out: RARgamma Kdapp) it was 8 nM. Moreover, the “RARbeta % Activation” value on RARbeta (at 5 μM, maximum level of activity) is given as 100%. Moreover, the AC50 on RARbeta (setting [1]) came to 600 nM; on RARalpha (setting [1]) it was 1700 nM; at RARgamma (setting [1]), 9 nM. Further, the RARalpha % activation at RARalpha (at 10 μM, maximum level of activity) turned out to be 100%. For the same compound, the RARgamma % activation at RARgamma (at 0.04 μM, maximum level of activity) was 100%. Further, the “specificity for RARgamma in comparison with RARalpha and RARbeta” value on RARgamma (listed as 2-Hydroxy-4-[2-hydroxyimino-2-(5,5,8,8-tetramethyl-5,6,7,8-tetrahydronaphthalen-) is listed as “selective agonist or activator of the RARgamma receptor”; on RARgamma (listed as 2-hydroxy-4-[2-hydroxyimino-2-(5,5,8,8-tetramethyl-5,6,7,8-tetrahydronaphthalen-), “great specificity for the receptor subtype RARgamma”.
The compound `CCOC(=O)c1ccc(OCC(=NO)c2ccc3c(c2)C(C)(C)CCC3(C)C)cc1O` [Example 1, ethyl 2-hydroxy-4-[2-hydroxyimino-2-(5,5,8,8-tetramethyl-5,6,7,8-tetrahydronaphthalen-2-yl)ethoxy]benzoate] displayed a melting point of 130 °C.
The same measure, in the same setting: the same measure for `CC(C)OC(=O)c1ccc(OCC(=NO)c2ccc3c(c2)C(C)(C)CCC3(C)C)cc1O` [Example 2, isopropyl 2-hydroxy-4-[2-hydroxyimino-2-(5,5,8,8-tetramethyl-5,6,7,8-tetrahydronaphthalen-2-yl)ethoxy]benzoate]: 130 °C.
Same read-out and setting: the value for `CC(C)COC(=O)c1ccc(OCC(=NO)c2ccc3c(c2)C(C)(C)CCC3(C)C)cc1O` [Example 3, isobutyl 2-hydroxy-4-[2-hydroxyimino-2-(5,5,8,8-tetramethyl-5,6,7,8-tetrahydronaphthalen-2-yl)ethoxy]benzoate] was 96 °C.

One may read the AC50 as the concentration giving half of the maximal activity seen. Read a high AC50 as weaker potency. The term melting point denotes the temperature of the solid-liquid transition.

Values taken from US20070249710A1, “Biaromatic compounds and cosmetic/pharmaceutical applications thereof” (GALDERMA RESEARCH & DEVELOPMENT, priority 2004, published 2007).
